{"source": "patent US8148431B2", "about": "“Osteogenesis promoter containing β-cryptoxanthin as the active ingredient” (Kemin Health, L.C., priority 2002, dated 2012)", "molecules": {"B1": {"name": "Parathyroid hormone: peptide hormone secreted from the accessory thyroid, causes bone mineral dissolution (bone resorption); “Parathormone” of Sigma (peptide, UniProt P01270 32-115, looked up)", "Parathyroid hormone": "SVSEIQLMHNLGKHLNSMERVEWLRKKLQDVHNFVALGAPLAPRDAGSQRPRKKEDNVLVESHEKSLGEADKADVNVLTKAKSQ", "modifications": "Parathyroid hormone", "notes": "peptide hormone secreted from the accessory thyroid, causes bone mineral dissolution (bone resorption); “Parathormone” of Sigma"}}, "assay_type_in_all_cases": "cell-based, Wistar male rats", "key": {"[1]": {"system": "metaphysis tissue of the femur (cancellous bone)", "experiment": "Bone alkaline phosphatase activity in cultured femoral metaphysis tissue pieces", "conditions": "Table 2 (protein synthesis inhibitor experiment), metaphysis tissue, 10^−6 M (each agent), mean ± SE, n=6", "protocol": "(§1) The femurs were extracted from rats (Wistar male rats; 4 to 5 weeks old) (purchased from Japan SLC Co., Ltd. and fed with solid Oriental yeast (MF)) under anesthesia with ether under a germfree condition. The femurs were each washed with 0.25 M sucrose solution, and then divided into the diaphysis (cortical bone) and metaphysis (cancellous bone). The bone tissue pieces were cultured in a culture medium (Dulbecco's modified culture medium containing 5% of glucose; serum-free medium) containing. β-cryptoxanthin, etc. at […] in an incubator filled with 5% CO2-95% air for 48 hours. β-cryptoxanthin used was “β-cryptoxanthin” of Extrasynthase Co., cycloheximide used was “Cycloheximide” of Sigma Co. Ltd., β-carotene was “β-carotene” of Sigma ? , xanthine was “Xanthine” of Sigma Co, Ltd., parathormone was “Parathormone” of Sigma Co. Ltd. and prostaglandin E2 was “Prostaglandin E2” of Sigma Co. Ltd. In the control, only the culture medium was used without β-cryptoxanthin or the like.\n(§2) The expression level of alkaline phosphatase, which is the most important enzyme for the acceleration of the calcification of bones, was examined. The tissue pieces cultured in the incubator were washed in 0.25 M sucrose solution, then pulverized in 3 ml of 65 mM barbital buffer (pH 7-4) and treated with ultrasonic waves. The resultant liquid was centrifuged. The supernatant, as the enzyme solution, was determined by a method of Walter ad Schutt in Method of Enzymatic Analysis, Vol. 1-2, p. 856, Academic Press, New York, 1965). Namely, this method was carried out as follows: p-nitrophenylphosphoric acid was used as the substrate. 0.05 ml of the enzyme solution was added to 2 ml of diethanolamine buffer (pH 9.8). After the incubation at 37° C. for 30 minutes, 10 ml of 0.05 N NaOH was added to the mixture. The absorbance (405 nm) was determined with a spectrophotometer to determine bone alkaline phosphatase activity of a bone remedy or a compound known to be effective for the bones.\n(§3) The bone component-increasing effect of β-cryptoxanthin was examined. The diaphysis and metaphysis tissue of the femur was cultured in the above-described culture medium containing β-cryptoxanthin (10^−5 to 10^−5 M) for 48 hours. Calcium level in the bone tissue, alkaline phosphatase activity (enzyme for accelerating the bone calcification) and the amount of deoxyribonucleic acid (DNA; index of number of cells in the bone tissue) were determined by the same methods as in Example 1. In each test group, the determination vas conducted 6 to 8 times and the results were represented by the average value and the standard error. The significant difference was determined by Student's t-test. The result was compared with that of the control. When P value was not higher than 0.01 (**) or not higher than 0.05 (*), the results were statistically significant."}, "[2]": {"system": "metaphysis tissue of the femur (cancellous bone)", "experiment": "Bone calcium level in cultured femoral metaphysis tissue pieces", "conditions": "metaphysis tissue; for Bone calcium level: mean ± SE; for Significant effect on increasing calcium level in the bone tissue (in words): Table 3 concentrations", "protocol": "as §1\n(§4) Bone calcium level in the bone tissue was determined. After the culture in the incubator, the tissue pieces were washed with 0.25 M sucrose solution and dried and then the bone was weighed. Then concentrated nitric acid was added to the tissue pieces. After the incineration at 120° C. for 12 hours, the bone calcium level was determined with an atomic absorption photometer (“Perkin-Elmer 303” of Perkin-Elmer Co.).\nas §3, with “The diaphysis and metaphysis tissue of the femur was cultured in the above-described culture medium containing β-cryptoxanthin (10^−5 to 10^−5 M) for 48 hours.” left out"}, "[3]": {"system": "metaphysis tissue of the femur (cancellous bone)", "experiment": "Bone DNA level in cultured femoral metaphysis tissue pieces", "conditions": "Table 2 (protein synthesis inhibitor experiment), metaphysis tissue, 10^−6 M (each agent), mean ± SE, n=6", "protocol": "as §1\n(§5) DNA level was determined as an index of the number of cells in the bone tissue. After the culture in an incubator, the tissue pieces were washed with 0.25 M sucrose solution and then the wet weight of them was determined. They were pulverized in 4 ml of 0.1 N NaOH. After the osmosis at 4° C. for 24 hours, the liquid mixture was centrifuged. The supernatant was taken as the sample and determined by a method of Ceriotti et al. (J. Biol. Chem., 241; 34-77, 1951). Namely, 1 ml of concentrated hydrochloric acid and 1 ml of 0.04% indole solution were added to 2 ml of the sample and then the resultant mixture was heated to 100° C. in boiling water. After quenching followed by the extraction with 4 ml of chloroform, the chloroform layer was taken to determine bone DNA level with a spectrophotometer (490 nm).\nas §3"}, "[4]": {"system": "diaphysis tissue of the femur (cortical bone)", "experiment": "Bone DNA level in cultured femoral diaphysis tissue pieces", "conditions": "Table 2 (protein synthesis inhibitor experiment), diaphysis tissue, 10^−6 M (each agent), mean ± SE, n=6", "protocol": "as §1, §5, §3"}, "[5]": {"system": "diaphysis tissue of the femur (cortical bone)", "experiment": "Bone calcium level in cultured femoral diaphysis tissue pieces", "conditions": "diaphysis tissue; for Bone calcium level: mean ± SE; for Significant effect on increasing calcium level in the bone tissue (in words): Table 3 concentrations", "protocol": "as §1, §4, §3"}, "[6]": {"system": "diaphysis tissue of the femur (cortical bone)", "experiment": "Bone alkaline phosphatase activity in cultured femoral diaphysis tissue pieces", "conditions": "Table 2 (protein synthesis inhibitor experiment), diaphysis tissue, 10^−6 M (each agent), mean ± SE, n=6", "protocol": "as §1, §2, §3"}, "[7]": {"system": "metaphysis tissue of the femur", "experiment": "Bone resorption (PTH or prostaglandin E2): bone calcium level in cultured metaphysis tissue", "protocol": "as §1, §4\n(§6) The bone mineral dissolution-inhibiting effect of β-cryptoxanthin was examined. […] PTH also has a pathophysiologic role on the expression of osteoporosis caused by the aging. It is known that prostaglandin E2 also causes physiologic bone mineral dissolution. The diaphysis or metaphysis tissue of the femur was cultured in the presence of 10^−7 M PTH or 10^−5 M prostaglandin E2 for 48 hours and then calcium level in the bone tissue was determined. In another experiment, the culture was conducted in the same manner as that described above in the coexistence of them and β-cryptoxanthin (10^−8 M to 10^−6 M) and then calcium level in the bone tissue was determined. In each test group, the determination was conducted 6 to 8 times and the results were represented by the average value and the standard error. The significant difference was determined by Student's t-test. The result was compared with that of the control. When P value was not higher than 0.01 (*) as compared with the control or it is not higher than 0.1 (#) as compared with that of prostaglandin E2, the results were statistically significant."}, "[8]": {"system": "diaphysis tissue of the femur", "experiment": "Bone resorption (PTH or prostaglandin E2): bone calcium level in cultured diaphysis tissue", "protocol": "as §1, §4, §6"}, "[9]": {"conditions": "Table 2 (protein synthesis inhibitor experiment), 10^−6 M (each agent), n=6"}, "[10]": {"conditions": "Comparative Example (Table 3), 10^−6 M, 48 h culture"}, "[11]": {"conditions": "Comparative Example (Table 3), 10^−7 M, 48 h culture"}, "[12]": {"conditions": "10^−7 M PTH, 48 h culture, vs control"}}, "note": "Marks after values point to notes of the source that are not given here."}
{"molecule": "C[C@@H]1C[C@@H]([C@H](O)CC2CC(=O)NC(=O)C2)C(=O)[C@@H](C)C1", "note": "[Cycloheximide, reference compound]", "values": [{"measurement": "Bone alkaline phosphatase activity", "setting": "[1]", "result": "948.8 ± 21.1", "unit": "nmol/min/mg protein"}, {"measurement": "Bone calcium level", "setting": "[2]; [9]", "result": "156.4 ± 2.81", "unit": "mg/g dry weight"}, {"measurement": "Bone DNA level", "setting": "[3]", "result": "3.001 ± 0.454", "unit": "mg/g bone wet weight"}, {"measurement": "Bone DNA level", "setting": "[4]", "result": "1.299 ± 0.127", "unit": "mg/g bone wet weight"}, {"measurement": "Bone calcium level", "setting": "[5]; [9]", "result": "204.0 ± 15.59", "unit": "mg/g dry weight"}, {"measurement": "Bone alkaline phosphatase activity", "setting": "[6]", "result": "534.5 ± 64.2", "unit": "nmol/min/mg protein"}]}
{"molecule": "CCCCC[C@H](O)/C=C/[C@H]1[C@H](O)CC(=O)[C@@H]1C/C=C\\CCCC(=O)O", "note": "[Prostaglandin E2, reference compound]", "values": [{"measurement": "Effect of prostaglandin E2 on calcium level in the bone tissue (in words)", "setting": "[7]; metaphysis tissue, prostaglandin E2 10^−5 M", "result": "significant reduction"}, {"measurement": "Bone calcium level", "setting": "[7]; metaphysis tissue, prostaglandin E2 10^−6 M alone, 48 h culture", "result": "163.5 ± 1.47* mg/g dry weight"}, {"measurement": "Effect of prostaglandin E2 on calcium level in the bone tissue (in words)", "setting": "[8]; diaphysis tissue, prostaglandin E2 10^−5 M", "result": "significant reduction"}, {"measurement": "Bone calcium level", "setting": "[8]; diaphysis tissue, prostaglandin E2 10^−5 M alone, 48 h culture", "result": "182.8 ± 4.06* mg/g dry weight"}]}
{"molecule": "Oc1nc(O)c2[nH]cnc2n1", "note": "[Xanthine, 2,6-dihydroxypurine, reference compound]", "values": [{"measurement": "Bone calcium level", "setting": "[2]; [10]", "result": "188.2 ± 3.34", "unit": "mg/g dry weight"}, {"measurement": "Bone calcium level", "setting": "[2]; [11]", "result": "189.8 ± 3.30", "unit": "mg/g dry weight"}, {"measurement": "Significant effect on increasing calcium level in the bone tissue (in words)", "setting": "[2]; 48 h culture", "result": "could not be obtained"}, {"measurement": "Bone calcium level", "setting": "[5]; [10]", "result": "240.2 ± 8.46", "unit": "mg/g dry weight"}, {"measurement": "Bone calcium level", "setting": "[5]; [11]", "result": "228.6 ± 7.08", "unit": "mg/g dry weight"}, {"measurement": "Significant effect on increasing calcium level in the bone tissue (in words)", "setting": "[5]; 48 h culture", "result": "could not be obtained"}]}
{"molecule": "CC1=C(/C=C/C(C)=C/C=C/C(C)=C/C=C/C=C(C)/C=C/C=C(C)/C=C/C2=C(C)CCCC2(C)C)C(C)(C)CCC1", "note": "[β-carotene, reference compound]", "values": [{"measurement": "Bone calcium level", "setting": "[2]; [10]", "result": "189.4 ± 8.06", "unit": "mg/g dry weight"}, {"measurement": "Bone calcium level", "setting": "[2]; [11]", "result": "195.4 ± 10.10", "unit": "mg/g dry weight"}, {"measurement": "Significant effect on increasing calcium level in the bone tissue (in words)", "setting": "[2]; 48 h culture", "result": "could not be obtained"}, {"measurement": "Bone calcium level", "setting": "[5]; [10]", "result": "215.6 ± 2.78", "unit": "mg/g dry weight"}, {"measurement": "Bone calcium level", "setting": "[5]; [11]", "result": "232.2 ± 6.66", "unit": "mg/g dry weight"}, {"measurement": "Significant effect on increasing calcium level in the bone tissue (in words)", "setting": "[5]; 48 h culture", "result": "could not be obtained"}]}
{"molecule": "B1", "values": [{"measurement": "Effect of PTH on calcium level in the metaphysis tissue (in words)", "setting": "[7]; [12]", "result": "significantly reduced"}, {"measurement": "Bone calcium level", "setting": "[7]; metaphysis tissue, parathyroid hormone 10^−7 M alone, 48 h culture", "result": "167.0 ± 0.96* mg/g dry weight"}, {"measurement": "Effect of PTH on calcium level in the diaphysis tissue (in words)", "setting": "[8]; [12]", "result": "significantly reduced"}, {"measurement": "Bone calcium level", "setting": "[8]; diaphysis tissue, parathyroid hormone 10^−7 M alone, 48 h culture", "result": "180.0 ± 3.23* mg/g dry weight"}]}
